Consider 90 molecules from a melting point compilation (Tetko et al.; mined from patent text by program, amines drawn as free bases though some values may be those of a salt).

Molecules are shown by their SMILES.

Consider `O=C(O)c1cn(C2CC2)c2cc(N3CCC3)c(F)cc2c1=O`, for which the melting point (usually the temperature, or range, at which the solid turns liquid) lay within 291 to 294 °C.

For `Cc1ccccc1Nc1nc(N2CCCC2)nc2ccccc12`, the melting point lay within 152 to 154 °C.

Regarding `Cn1nnnc1SCCCCN1C(=O)c2ccccc2C1=O`, the melting point lay in the range of 92 to 93 °C.

`CC1CC(=O)NN=C1c1ccc2c(c1)N(C(C)C)C(=O)C(C)O2` (stereo not given) gave a melting point of 204 to 205 °C.

The molecule `CC(=O)Nc1ccc(Nc2c(CC3CC4C=CC3C4)cc(C(=O)O)cc2S(=O)(=O)NC(C)=O)cc1` (stereo not given) had a melting point of 270 °C.

Take `COCOc1ccc(C=CC(=O)c2c(OC)cc(OC)c(CC=C(C)C)c2O)cc1OC`: the melting point is 126 to 127 °C.

With `CCCCC[C@@H](CNC(=O)Nc1c(OCC)ccc2c1CCCC2)c1cccc2c1OCO2`, the melting point fell in the range of 81.5 to 82.5 °C.

With `CCN1c2ncccc2C(=O)N(C)c2ccc(-c3ccn(C)c3)nc21`, the melting point fell in the range of 187 to 188 °C.

`CC(C)[C@H]1CC[C@H](C(=O)N[C@H](Cc2ccc(OCCN(C)c3ccccn3)cc2)C(=O)O)CC1` had a melting point of 154 to 155 °C.

`O=S(=O)(Nc1cccc(CCOCc2ccc(-c3ccc(Cl)c(Cl)c3)cc2)c1)C(F)(F)F`: the melting point was in the range of 74 to 75 °C.

The molecule `Cc1ccccc1-c1cc(C(F)(F)F)n2cnc(C#N)c2n1` had a melting point of 151 °C.

The molecule `Fc1cc(-n2cnnn2)ccc1-c1ccc2oc(C3CCNCC3)nc2c1` had a melting point of 148 to 151 °C.

In turn, `CC(=O)n1c(SC(F)(F)C(F)F)nc(-c2ccccc2)c1-c1ccccc1` registered a melting point of 143 to 144 °C.

Consider `CCCCc1nnc2c(Cl)nc3ccccc3n12`, for which the melting point fell in the range of 144 to 146 °C.

The molecule `COC(=O)C(=CNc1ccc(O)cc1C)C(=O)C=CC1=CCCC1` returned a melting point of 148 to 151 °C.

As to `COc1cn(C)c(=O)c(N)n1`, the melting point fell in the range of 166 to 167 °C.

`O=C(O)CNC(=O)c1nc2ccccc2cc1O` showed a melting point of 191 °C.

`Cc1ccc(CC2CCN(C(=O)C(=O)Nc3ccc4c(c3)CS(=O)(=O)N4)CC2)cc1` displayed a melting point of 186 °C.

`Cc1cc(=O)[nH]c(=O)n1Cc1ccccc1` registered a melting point of 228 to 230 °C.

Regarding `COc1ccc(OC)c2c1C(=O)OC2=O`, the melting point lay within 265 to 268 °C.

`CCCOc1ccc2[nH]c(C(=O)O)cc2c1` yielded a melting point of 155 °C.

`O=C1C(Cc2ccccc2)SC(=S)N1c1nccs1` (stereo not given): the melting point lay within 164 to 165 °C.

For `COC(=O)OC1CCC2C3CCC4=CC(=O)CCC4(C)C3CCC12C` (stereo not given), the melting point is 140 to 141 °C.

The molecule `CC(=O)OC(C=C(C)C=CC=C(C)C=O)OC(C)=O` gave a melting point of 99.5 °C.

`CNC(=O)CC(O)(c1ccccc1)c1ccc2nc(N)n(S(=O)(=O)C(C)C)c2c1` (stereo not given) registered a melting point of 92 to 95 °C.

Consider `COCOc1ccc(C(=O)Cn2c(-c3nonc3N)nc3ccccc32)cc1OC`, for which the melting point turned out to be 190 °C.

In the case of `CCOC(=O)c1oc2cc(O)ccc2c(=O)c1C(N)=O`, the melting point was > 320 °C.

With `CC(C)(C)c1cc(NC(=O)NCc2ccc([N+](=O)[O-])cc2)cc(C(C)(C)C)c1O`, the melting point lay within 240 to 241 °C.

Molecule `Oc1cc2c(-c3ccc(Cl)cc3)csc2c(Cl)c1Cl` came in with a melting point of 174 to 176 °C.

`C=Cc1cccc(N)c1` yielded a melting point of 80 °C.

Consider `C[C@@H]1S[C@@H](C(=O)Nc2ccc(CN3CCSC3)cc2)Cc2cc3c(cc2C1=O)OCO3`, for which the melting point fell in the range of 179 to 181 °C.

Molecule `BrCCCCCCCCCCCCN1CCN(c2ccccc2)CC1` returned a melting point of 26 to 28 °C.

Regarding `O=[N+]([O-])c1c(NCCC23CCCN2CCC3)cnc2ccccc12`, the melting point is 106 to 108 °C.

On to `Cc1c(Cl)c(Cl)c(SC(F)(F)F)c(Cl)c1Cl`, for which the melting point was 49.5 to 50.5 °C.

For `COc1ccc(-c2sc3ncc(CO)c(O)c3c2C)cc1`, the melting point was > 300 °C.

`C[C@@H](Cn1ncc2ccc3c(c21)C[C@@H](OCC(=O)OC(C)(C)C)CO3)N=[N+]=[N-]` came in with a melting point of 77 to 78 °C.

Molecule `c1ccc(COc2ccc(Nc3ncnc4ncccc34)cc2)cc1` registered a melting point of 235 to 237 °C.

Consider `CCN(CC)C(=O)NC1CC2c3cccc4[nH]c(C(=O)OCc5ccccc5)c(c34)CC2N(C)C1` (stereo not given), for which the melting point fell in the range of 226 to 229 °C.

Take `CS(=O)c1cc(-c2ccc(C(F)(F)F)cc2)ccc1C#N` (stereo not given): the melting point lay within 127 to 128 °C.

`CC(=O)OCC1OC(n2cc(C(Br)=CBr)c(=O)[nH]c2=O)C(OC(C)=O)C1OC(C)=O` (stereo not given) returned a melting point of 83 to 85 °C.

Regarding `COc1cc2cc3ncc(C#N)c(Nc4ccc(Oc5ccccc5)cc4)c3cc2cc1OC`, the melting point is > 265 °C.

For `N#Cc1c(-c2oc3ccccc3c2Cl)[nH]c(Cl)c1Cl`, the melting point fell in the range of 258 to 260 °C.

For `O=c1c(CCCCBr)c(O)c2cccnc2n1-c1ccccc1`, the melting point lay in the range of 169 to 171 °C.

`O=C1CCCC(c2ccc(F)cc2)CN1` (stereo not given) showed a melting point of 158 to 160 °C.

Regarding `CCn1ncc2c1ncc1c(OC(C)C)nc3cc(C)nn3c12`, the melting point was 129 to 130 °C.

`CC(C(=O)Oc1cc(=O)n(-c2ccccc2)c2ncccc12)c1ccccc1` (stereo not given) displayed a melting point of 166 to 168 °C.

On to `CCCC(=O)NCC1CCc2c(OC)ccc3cccc1c23` (stereo not given), for which the melting point is 100 °C.

`COC(=O)CCc1cc(S(C)(=O)=O)cc(-c2nc(=O)c3ccc(Cl)cc3s2)n1` came in with a melting point of 203 to 204 °C.

Take `CCCC(=O)c1cnc2ccccc2c1Nc1ccccc1OC`: the melting point lay in the range of 167 to 168 °C.

`CN1CCC2(c3cccc(O)c3)CCCC2C1` (stereo not given) displayed a melting point of 151 to 153 °C.

`CC(C)Cn1nc(-c2ccc(F)cc2F)cc(COS(C)(=O)=O)c1=O` had a melting point of 86.7 to 88.6 °C.

In the case of `CC(=O)C(=NNc1ccccc1)Sc1ccc(Cl)cc1`, the melting point lay within 111 to 113 °C.

In the case of `CC(C)(C)c1cc(Cl)c(Cl)cc1[N+](=O)[O-]`, the melting point stood at 80 °C.

For `CCc1nn2c(N)cc(N3CCN(C)CC3)nc2c1S(=O)(=O)c1ccccc1`, the melting point was > 250 °C.

Molecule `CC[C@@H]1C(=O)N(Cc2ccc(OC)cc2OC)[C@H]1CC(=O)O` (relative stereo) displayed a melting point of 131 °C.

`O=C(O)c1cn(C2CC2)c2nc(-c3cc4c(s3)CCC/C4=N\O)c(F)cc2c1=O`: the melting point is > 300 °C.

Consider `CC(C)n1nc(-c2c(-c3ccccc3)nn3ccc(N4CCCC4=O)cc23)ccc1=O`, for which the melting point lay in the range of 266 to 267 °C.

Molecule `COC(=O)C(O)C(=O)C(C)Oc1ccc(Oc2nc3ccc(Cl)cc3s2)cc1` (stereo not given) displayed a melting point of 104 to 106 °C.

Regarding `CCN(CC)CCNc1nc2cccnc2n(-c2ccc(C)cc2)c1=O`, the melting point is 131 to 132 °C.

For `COc1ccc2c(c1)CCC1C2CCC2(C)C(=O)C(Br)CC12` (stereo not given), the melting point was in the range of 146 to 149 °C.

With `CN1C(=O)N(C)C(=O)C(Cc2ccccc2)(Cc2ccccc2)C1=O`, the melting point fell in the range of 128 to 129 °C.

Regarding `COc1cc(NC(C)=O)ccc1N1CCN(CCCNc2c(C)c(=O)n(C)c(=O)n2C)CC1`, the melting point was in the range of 178 to 180 °C.

`CC(=O)Nc1ccc(OC(F)F)c(OC(F)F)c1` displayed a melting point of 65 to 67 °C.

The molecule `Nc1cc(Cl)nc(C(=O)NOCc2ccc(F)cc2)c1Cl` returned a melting point of 209 to 211 °C.

`CC1(C)OC(CS(=O)(=O)c2ccc(Cl)cc2)=CC1=O`: the melting point lay within 112 to 113 °C.

As for `COc1cc(N)c(Cl)cc1C(=O)NCC1CCN(CCCCOc2ccccc2)CC1`, the melting point was in the range of 71 to 73 °C.

For the molecule `CCOC(=O)c1nnc(C(=O)OCC)nn1`, the melting point is 85 to 90 °C.

Regarding `O=C1C2C3CCC(C3)C2C(=O)C1[N+](=O)[O-]` (stereo not given), the melting point came out at 167 °C.

In the case of `COC(=O)CCn1c(=O)n(CCN2CCN(c3ccc(OC)cc3)CC2)c(=O)c2cscc21`, the melting point is 151 to 152 °C.

`Nc1ccc(C(=O)O)cc1NCc1ccccc1Cl` came in with a melting point of 176 to 177 °C.

Molecule `Cc1oc(-c2ccccc2)nc1COc1ccc(COc2ncccc2CC#N)cc1` came in with a melting point of 149 to 150 °C.

Regarding `CN1Cc2c(-c3noc(CCl)n3)ncn2-c2ccsc2C1=O`, the melting point was 221 to 223 °C.

Regarding `CCOC(=O)c1[nH]c2cc(Cl)cc(Cl)c2c1NCC(=O)OCCCC(=O)c1ccccc1`, the melting point is 139 to 140 °C.

As for `CCOC(=O)CC(C)(C)NCC(O)c1ccc(O)c2[nH]c(C(=O)OCC)cc12` (stereo not given), the melting point was 175 to 178 °C.

Take `CCOC(=O)N1CCC(Nc2ccc(Cl)cc2[N+](=O)[O-])CC1`: the melting point was found to be 116 °C.

`O=C(OCc1ccccc1)c1cc2cc(Br)ccc2nn1`: the melting point was found to be 171 °C.

`CCc1nc2c(ccc3nc(C)c(C)nc32)cc1C`: the melting point was 137 to 138 °C.

For `CC(C)(C)OC(=O)N1CCN(CC(O)COc2ccc(CC#N)cc2)CC1` (stereo not given), the melting point is 98 to 100 °C.

As for `Cc1c(Cc2cccc(C(F)(F)F)c2)oc2c(-c3cccc(C(=O)O)c3)cccc12`, the melting point was in the range of 200 to 201 °C.

As to `CCOC(=O)COc1cc2c(c(Cl)c1Cl)C(=O)C(CC)=C2`, the melting point was 141 to 143 °C.

In turn, `CC1C[C@H]2[C@@H](O1)[C@@H](O)C(=O)N2Cc1ccccc1` (relative stereo) yielded a melting point of 98 to 101 °C.

Regarding `Cc1nc(NC(=O)c2ccccc2)sc1C(=O)n1ccnc1`, the melting point lay within 228 to 231 °C.

In turn, `COc1cccc(NC(=O)NC2N=C(C)c3cccc(C)c3N(CC(=O)N3CC4CCC(CC4)C3)C2=O)c1` (stereo not given) returned a melting point of 170 to 171 °C.

Take `CCSc1nc(C)[nH]c1CO`: the melting point amounted to 153 °C.

As for `O=Cc1c2ccccc2c(SCCO)c2ccccc12`, the melting point fell in the range of 103 to 104 °C.

The molecule `CCCCCCCCCCOc1ccc(C(=O)c2cccc(C(=O)O)c2)cc1Cc1nnn[nH]1` had a melting point of 147 to 150 °C.

For the molecule `COc1ncccc1Nc1c(NC(NC(=O)c2cccc(Cl)c2)C(C)(C)C)c(=O)c1=O` (stereo not given), the melting point lay within 208 to 210 °C.

`COC(=O)N1CCc2c(O)noc2C1` had a melting point of 136 to 138 °C.

Turning to `Nc1ccc(Cn2cnc3c(-c4ccco4)ncnc32)cc1`, the melting point was 195 to 197 °C.

Regarding `COc1cc(C)nc(NC(=O)NS(=O)(=O)c2ccsc2C2=CCCCC2)n1`, the melting point is 190 to 192 °C.
